Consider seven molecules from paper PMC7150989 (Viruses, 2020).

Data set [1] relates to A/Duck/Guangdong/212/2004 (H5N1) virus. Description: microbe, parasite or virus in culture. It is filed as cell-based, H5N1 avian influenza virus.
A further data set has as its system H5N1 virus. The data set is described as follows: microbe, parasite or virus in culture. It is filed as cell-based, H5N1 avian influenza virus. Conditions: Influenza A virus.
Data set [2] concerns wild-type A/Thailand/kan353/2004 (H5N1) pseudo-typed virus. Description: microbe, parasite or virus in culture. It counts as cell-based, H5N1 pseudovirus. Conditions: Influenza A virus, H5N1, MDCK; for inhibition at 1.56 µM / inhibition at 3.13 µM / inhibition at 6.25 µM / inhibition at 12.5 µM / inhibition at 25 µM / inhibition at 50 µM / inhibition at 100 µM / inhibition at 200 µM: 48 h, read-out: inhibitory rates against pseudotyped virus, Wildtype Strain; for IC50: read-out: IC50 against H5N1 pseudovirus.

In a further data set the test system is VSVG pseudovirus. Description: microbe, parasite or virus in culture. It is filed as cell-based, vesicular stomatitis virus (VSVG). Conditions: for inhibition at 1.56 µM / inhibition at 3.13 µM / inhibition at 6.25 µM / inhibition at 12.5 µM / inhibition at 25 µM / inhibition at 50 µM / inhibition at 100 µM / inhibition at 200 µM: Pseudovirus, MDCK, 48 h, read-out: inhibitory rates, VSVG pseudovirus group.

For a further data set, the target named is H5N1 virus neuraminidase (Influenza A virus, UniProt Q9Q0U7). Description: biochemical. Conditions: for inhibition at 6.25 µM / inhibition at 12.5 µM / inhibition at 25 µM / inhibition at 50 µM / inhibition at 100 µM / inhibition at 200 µM / inhibition at 400 µM: read-out: The neuraminidase inhibitory rate (%).
The subject of data set [3] is H5N1 virus HA1 (hemagglutination of chicken erythrocytes).
The target of a further data set is HA protein (Influenza A virus, UniProt Q9Q0U6). Description: biochemical. It is filed as binding, H5N1 virus.
The nature of another data set: in vitro. The following applies: dog.
In another data set the test system is MDCK cells. The following applies: dog.
The subject of data set [4] is A/Vietnam/1203/2004(H5N1) and A/Goose/Qinghai/59/05(H5N1) pseudotyped viral entry. The following applies: read-out: IC50 against pseudotyped viral entry; cited from earlier work.
Where [5] appears, read: Influenza A virus, H5N1, MDCK, read-out: Inhibition rates to H5N1 virus (%).
Setting [6] is: H5N1, read-out: inhibition rate of viral plaques forming.

Like-named read-outs stand apart in the source and are kept apart here.

Chain of H5N1 virus neuraminidase (Q9Q0U7 whole entry, looked up): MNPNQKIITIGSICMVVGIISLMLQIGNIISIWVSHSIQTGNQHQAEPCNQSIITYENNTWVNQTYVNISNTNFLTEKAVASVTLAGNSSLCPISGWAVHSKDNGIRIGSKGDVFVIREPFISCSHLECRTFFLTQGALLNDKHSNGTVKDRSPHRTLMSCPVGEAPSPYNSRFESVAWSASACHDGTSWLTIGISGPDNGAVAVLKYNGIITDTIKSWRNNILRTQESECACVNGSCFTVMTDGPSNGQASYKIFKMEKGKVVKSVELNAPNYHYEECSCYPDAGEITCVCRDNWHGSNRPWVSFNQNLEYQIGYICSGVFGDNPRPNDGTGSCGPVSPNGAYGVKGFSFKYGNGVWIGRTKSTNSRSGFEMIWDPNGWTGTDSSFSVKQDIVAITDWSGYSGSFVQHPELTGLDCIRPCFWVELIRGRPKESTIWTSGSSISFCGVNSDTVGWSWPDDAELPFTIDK
Chain of HA protein (Q9Q0U6 17-568 limits assumed): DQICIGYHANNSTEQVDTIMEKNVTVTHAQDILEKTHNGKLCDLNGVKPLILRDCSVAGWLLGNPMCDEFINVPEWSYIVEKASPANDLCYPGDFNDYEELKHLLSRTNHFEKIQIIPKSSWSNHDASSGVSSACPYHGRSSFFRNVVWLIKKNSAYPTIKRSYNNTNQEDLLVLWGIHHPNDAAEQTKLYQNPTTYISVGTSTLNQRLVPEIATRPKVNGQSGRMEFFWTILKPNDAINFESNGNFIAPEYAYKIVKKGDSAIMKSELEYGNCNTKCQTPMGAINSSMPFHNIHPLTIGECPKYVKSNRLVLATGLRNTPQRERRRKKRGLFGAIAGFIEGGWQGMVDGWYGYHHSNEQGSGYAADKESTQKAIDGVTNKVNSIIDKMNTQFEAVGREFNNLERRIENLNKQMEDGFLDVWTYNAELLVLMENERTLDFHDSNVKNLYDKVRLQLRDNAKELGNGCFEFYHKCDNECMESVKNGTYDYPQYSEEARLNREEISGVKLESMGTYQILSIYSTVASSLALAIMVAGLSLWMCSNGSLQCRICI

Molecule `CC1CCC2(OC1)OC1CC3C4CC(O)C5CC(OC6OC(CO)C(OC7OC(C)C(O)C(O)C7O)C(O)C6OC6OC(C)C(O)C(O)C6O)CCC5(C)C4CCC3(C)C1C2C` (stereo not drawn) [XC-27-2] came in with a 50% inhibitory concentration (IC50) in [1] (Influenza A virus, H5N1, MDCK) of 12.5 ± 2.27 µM. Besides, in data set [1] (setting [5]), the inhibition at 0.39 µM was determined as 31.9 ± 4.33%, the inhibition at 0.78 µM stood at 38.6 ± 0.68%, the inhibition at 1.56 µM was 41.5 ± 2.01% and the inhibition at 3.13 µM was found to be 47.1 ± 5.94%. In data set [1] (setting [5]), the inhibition at 6.25 µM came out at 55.6 ± 3.97%, the inhibition at 12.5 µM amounted to 62.2 ± 0.99%, the inhibition at 25 µM was 71 ± 4.31% and the inhibition at 50 µM was 96.8 ± 1.51%. In addition, the inhibition at 40 µM with H5N1 virus (H5N1, read-out: inhibition percentage of H5N1 viral plaques forming amounts) worked out at 91%. In the data set with H5N1 virus (setting [6]), the inhibition at 40 µM is 96%. For the same molecule, in data set [2], the inhibition at 1.56 µM turned out to be 26.8 ± 9.96%, the inhibition at 3.13 µM stood at 30.1 ± 12.2%, the inhibition at 6.25 µM is 35.8 ± 12.1% and the inhibition at 12.5 µM was found to be 46.3 ± 6.37%. Also, in data set [2], the inhibition at 25 µM was found to be 47.4 ± 13.2%, the inhibition at 50 µM was found to be 64.9 ± 12.5%, the inhibition at 100 µM came out at 90.5 ± 2.35% and the inhibition at 200 µM came out at 95.98 ± 0.68%. Also, in data set [2], the IC50 was found to be 18.5 ± 1.82 µM. For the same molecule, in the data set with VSVG pseudovirus, the “inhibitory effects on the VSVG pseudovirus” value is “no inhibitory effects”, the inhibition at 1.56 µM was 2.62 ± 4.57%, the inhibition at 3.13 µM was -3.39 ± 4.64% and the inhibition at 6.25 µM is 0.17 ± 5.78%. Further, in the data set with VSVG pseudovirus, the inhibition at 12.5 µM was 1.54 ± 13.9%, the inhibition at 25 µM worked out at 0.46 ± 0.94%, the inhibition at 50 µM was found to be 0.34 ± 6.12% and the inhibition at 100 µM was determined as 6.84 ± 5.83%. For the same molecule, the inhibition at 200 µM in the data set on VSVG pseudovirus turned out to be 6.52 ± 2.16%. On H5N1 virus neuraminidase, the “inhibition activity on NA (in words)” value is listed as “very low inhibition activity”, the inhibition at 6.25 µM stood at 1.09 ± 2.99%, the inhibition at 12.5 µM is 5.75 ± 4.41% and the inhibition at 25 µM was 2.89 ± 8.39%. For the same molecule, on H5N1 virus neuraminidase, the inhibition at 50 µM is 10.5 ± 16.5%, the inhibition at 100 µM was 13.3 ± 4.06%, the inhibition at 200 µM amounted to 15.6 ± 2.97% and the inhibition at 400 µM amounted to 32 ± 10%. Besides, in data set [3], the “inhibitory effects to the hemagglutination reaction induced by the virus HA1” value is on record as “had not produced inhibitory effects”. The molecule further displayed a Kd at HA protein of 367 µM. In addition, the CC50 in the data set “in vitro” stood at 73.8 ± 0.79 µM.
`CC1CCC2(OC1)OC1CC3C4CC(=O)C5CC(OC6OC(CO)C(OC7OC(C)C(O)C(O)C7O)C(O)C6OC6OC(C)C(O)C(O)C6O)CCC5(C)C4CCC3(C)C1C2C` (stereo not drawn) [XC-27-1]: the IC50 in [1] worked out at 16.8 ± 1.45 µM. In data set [1] (0.39 µM), the “Inhibition rates to H5N1 virus (%)” value was 27.54±1.11%. The “Inhibition rates to H5N1 virus (%)” value in data set [1] (0.78 µM) is 31.73±6.04%. The “Inhibition rates to H5N1 virus (%)” value in data set [1] (1.56 µM) was determined as 37.01±4.82%. Besides, the “Inhibition rates to H5N1 virus (%)” value in data set [1] (3.13 µM) is reported as 40.85±8.91%. For the same molecule, the “Inhibition rates to H5N1 virus (%)” value in [1] (6.25 µM) amounted to 46.13±10.59%. Besides, in [1] (12.5 µM), the “Inhibition rates to H5N1 virus (%)” value was 55.30±3.74%. Besides, the “Inhibition rates to H5N1 virus (%)” value in data set [1] (25 µM) stood at 75.06±10.43%. In addition, the “Inhibition rates to H5N1 virus (%)” value in data set [1] (50 µM) is recorded as 85.71±5.06%. For the same molecule, the inhibition at 40 µM with H5N1 virus (setting [6]) was found to be 95%. In data set [2], the inhibition at 1.56 µM was found to be 33.6 ± 5.25%, the inhibition at 3.13 µM stood at 38 ± 3.24%, the inhibition at 6.25 µM is 40.7 ± 10.9% and the inhibition at 12.5 µM is 49 ± 11.7%. In data set [2], the inhibition at 25 µM stood at 60.7 ± 3.73%, the inhibition at 50 µM turned out to be 64.8 ± 2.96%, the inhibition at 100 µM came to 78 ± 2.16% and the inhibition at 200 µM is 95.3 ± 3.6%. Besides, the IC50 in data set [2] is 12.8 ± 7.01 µM. In the data set on VSVG pseudovirus, the “inhibitory effects on the VSVG pseudovirus” value was “no inhibitory effects”, the inhibition at 1.56 µM was -0.74 ± 6.43%, the inhibition at 3.13 µM is -1.52 ± 4.89% and the inhibition at 6.25 µM was -4.3 ± 3.47%. Also, in the data set with VSVG pseudovirus, the inhibition at 12.5 µM came to 3.54 ± 4.16%, the inhibition at 25 µM was determined as 0.83 ± 6.72%, the inhibition at 50 µM came to 3.97 ± 5.2% and the inhibition at 100 µM is 4.8 ± 4.97%. For the same molecule, in the data set with VSVG pseudovirus, the inhibition at 200 µM is 4.75 ± 3.18%. In addition, on H5N1 virus neuraminidase, the “inhibition activity on NA (in words)” value was “very low inhibition activity”, the inhibition at 6.25 µM amounted to 6.57 ± 6.89%, the inhibition at 12.5 µM was determined as 0.18 ± 8.13% and the inhibition at 25 µM was -6.95 ± 12.7%. On H5N1 virus neuraminidase, the inhibition at 50 µM amounted to 5.37 ± 14.4%, the inhibition at 100 µM stood at 6.45 ± 14.9%, the inhibition at 200 µM turned out to be 7.07 ± 9.83% and the inhibition at 400 µM is 24.5 ± 8.38%. Also, the “inhibitory effects to the hemagglutination reaction induced by the virus HA1” value in data set [3] was “had not produced inhibitory effects”. At HA protein, this molecule registered a Kd of 257 µM. In the data set on MDCK cells, the CC50 is 1247 ± 1.16 µM and the “in vitro cytotoxicity decreased (fold) than that of XC-27-2” value is listed as 16 fold.
In turn, `CCOC(=O)C1=C[C@@H](OC(CC)CC)[C@H](NC(C)=O)[C@@H](N)C1` [Osetamivir, reference compound] came in with an IC50 at H5N1 virus neuraminidase of 0.00887 µM.
For `CC1CCC2(OC1)OC1CC3C4CC(O)C5CC(OC6OC(CO)C(OC7OC(C)C(O)C(O)C7O)C(O)C6OC6OC(C)C(O)C(O)C6O)CCC5(C)C4CCC3(C)C1C2C` (stereo not drawn) [chlorogenin 3-O-β-chacotrioside], the IC50 in data set [4] was 7.22 to 9.25 µM.
Turning to `CC1CCC2(OC1)OC1CC3C4CC(=O)C5CC(OC6OC(CO)C(OC7OC(C)C(O)C(O)C7O)C(O)C6OC6OC(C)C(O)C(O)C6O)CCC5(C)C4CCC3(C)C1C2C` (stereo not drawn) [UA-Nu-ph-5], the “Inhibition rates to H5N1 virus (%)” value in data set [1] (0.39 µM) was determined as 0%; in data set [1] (0.78 µM) it was 10.75±2.01%; in data set [1] (1.56 µM) it was 10.78±3.11%; in data set [1] (3.13 µM), 16.51±6.34%; in data set [1] (50 µM), 65.30±4.73%. In data set [1] (Influenza A virus, H5N1, MDCK), this molecule had an IC50 of 15.6 ± 2.4 µM. Also, the inhibition at 6.25 µM in data set [1] (setting [5]) turned out to be 35 ± 10.8%. For the same molecule, the inhibition at 12.5 µM in data set [1] (setting [5]) stood at 47.1 ± 1.63%. In addition, the inhibition at 25 µM in data set [1] (setting [5]) is 61.7 ± 5.4%. The inhibition at 100 µM in data set [1] (setting [5]) was found to be 79.1 ± 3.27%. The molecule further registered a CC50 in the data set with MDCK cells of 127 ± 1.7 µM.
On to `CCC(CC)[C@H](NC(C)=O)[C@@H]1[C@H](O)[C@@H](C(=O)O)C[C@H]1N=C(N)N` [peramivir, reference compound], for which the IC50 on H5N1 virus neuraminidase (read-out: IC50 against H5N1 viral NA) came out at 0.000668 µM.
As for `NC(=O)c1ncn([C@@H]2O[C@H](CO)[C@@H](O)[C@H]2O)n1` [ribavirin, reference compound], in [1] (Influenza A virus, H5N1, MDCK), the IC50 is 37.2 ± 1.6 µM. In the data set “in vitro”, this molecule came in with a CC50 of 132 ± 0.87 µM.

The term IC50 denotes the concentration that gives 50% inhibition. What is called Kd is the equilibrium constant for the complex coming apart. Read a high Kd as a looser complex.
